Test results reported in patent US20250205344A1, “2,4-DIOXOTETRAHYDROPYRIMIDINYL DERATIVES AS DEGRONS IN PROTACS” (GLAXOSMITHKLINE INTELLECTUAL PROPERTY DEVELOPMENT LIMITED, priority 2022, published 2025).
Structures can show the parent of a compound that is named as a salt.

Target: T1, Androgen Receptor (Homo sapiens, UniProt P10275, T878A)
T1 construct: the AR gene was modified, using CRISPR/Cas9 editing, so the expressed AR protein included an 11 amino acid HiBiT tag; endogenous in cells; host or cells: clonal LnCaP-derived line, AR gene edited by CRISPR/Cas9
T1 sequence (P10275 whole entry T878A): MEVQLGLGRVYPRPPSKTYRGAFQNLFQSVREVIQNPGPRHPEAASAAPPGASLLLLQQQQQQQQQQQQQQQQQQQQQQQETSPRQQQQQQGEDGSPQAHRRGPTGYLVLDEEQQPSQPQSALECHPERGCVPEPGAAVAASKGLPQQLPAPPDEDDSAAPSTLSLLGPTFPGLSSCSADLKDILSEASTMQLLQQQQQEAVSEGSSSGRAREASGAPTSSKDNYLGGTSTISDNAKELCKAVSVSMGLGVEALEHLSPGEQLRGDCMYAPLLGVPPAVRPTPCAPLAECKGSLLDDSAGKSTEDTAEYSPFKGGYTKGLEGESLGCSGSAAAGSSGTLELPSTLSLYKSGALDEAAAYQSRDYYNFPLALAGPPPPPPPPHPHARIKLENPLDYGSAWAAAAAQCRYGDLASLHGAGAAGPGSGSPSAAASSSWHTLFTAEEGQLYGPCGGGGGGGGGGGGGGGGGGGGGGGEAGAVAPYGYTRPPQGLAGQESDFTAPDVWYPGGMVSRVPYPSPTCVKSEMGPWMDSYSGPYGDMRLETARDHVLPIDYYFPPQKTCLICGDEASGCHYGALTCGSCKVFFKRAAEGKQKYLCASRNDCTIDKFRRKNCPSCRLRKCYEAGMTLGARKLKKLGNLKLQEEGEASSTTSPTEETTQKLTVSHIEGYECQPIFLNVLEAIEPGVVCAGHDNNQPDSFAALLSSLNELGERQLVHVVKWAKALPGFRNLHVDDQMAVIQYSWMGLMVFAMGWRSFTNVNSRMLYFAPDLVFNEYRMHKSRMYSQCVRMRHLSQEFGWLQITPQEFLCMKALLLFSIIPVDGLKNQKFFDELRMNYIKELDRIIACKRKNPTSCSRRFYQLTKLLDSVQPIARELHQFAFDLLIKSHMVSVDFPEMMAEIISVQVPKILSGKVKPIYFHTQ
T1 sequence (Q96SW2 whole entry partner): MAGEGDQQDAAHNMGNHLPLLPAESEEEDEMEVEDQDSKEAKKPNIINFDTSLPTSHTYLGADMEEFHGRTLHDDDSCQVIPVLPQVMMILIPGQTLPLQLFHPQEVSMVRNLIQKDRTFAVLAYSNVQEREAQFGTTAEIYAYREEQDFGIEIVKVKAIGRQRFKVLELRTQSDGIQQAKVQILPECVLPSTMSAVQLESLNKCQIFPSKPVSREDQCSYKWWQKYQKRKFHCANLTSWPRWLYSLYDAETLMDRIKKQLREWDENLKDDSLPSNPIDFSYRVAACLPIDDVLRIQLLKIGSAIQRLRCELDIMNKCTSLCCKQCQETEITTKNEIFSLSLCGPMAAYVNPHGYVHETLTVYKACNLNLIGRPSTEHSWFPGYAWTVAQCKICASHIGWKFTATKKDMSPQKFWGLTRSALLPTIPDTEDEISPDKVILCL
T1 sequence (Q16531 whole entry partner): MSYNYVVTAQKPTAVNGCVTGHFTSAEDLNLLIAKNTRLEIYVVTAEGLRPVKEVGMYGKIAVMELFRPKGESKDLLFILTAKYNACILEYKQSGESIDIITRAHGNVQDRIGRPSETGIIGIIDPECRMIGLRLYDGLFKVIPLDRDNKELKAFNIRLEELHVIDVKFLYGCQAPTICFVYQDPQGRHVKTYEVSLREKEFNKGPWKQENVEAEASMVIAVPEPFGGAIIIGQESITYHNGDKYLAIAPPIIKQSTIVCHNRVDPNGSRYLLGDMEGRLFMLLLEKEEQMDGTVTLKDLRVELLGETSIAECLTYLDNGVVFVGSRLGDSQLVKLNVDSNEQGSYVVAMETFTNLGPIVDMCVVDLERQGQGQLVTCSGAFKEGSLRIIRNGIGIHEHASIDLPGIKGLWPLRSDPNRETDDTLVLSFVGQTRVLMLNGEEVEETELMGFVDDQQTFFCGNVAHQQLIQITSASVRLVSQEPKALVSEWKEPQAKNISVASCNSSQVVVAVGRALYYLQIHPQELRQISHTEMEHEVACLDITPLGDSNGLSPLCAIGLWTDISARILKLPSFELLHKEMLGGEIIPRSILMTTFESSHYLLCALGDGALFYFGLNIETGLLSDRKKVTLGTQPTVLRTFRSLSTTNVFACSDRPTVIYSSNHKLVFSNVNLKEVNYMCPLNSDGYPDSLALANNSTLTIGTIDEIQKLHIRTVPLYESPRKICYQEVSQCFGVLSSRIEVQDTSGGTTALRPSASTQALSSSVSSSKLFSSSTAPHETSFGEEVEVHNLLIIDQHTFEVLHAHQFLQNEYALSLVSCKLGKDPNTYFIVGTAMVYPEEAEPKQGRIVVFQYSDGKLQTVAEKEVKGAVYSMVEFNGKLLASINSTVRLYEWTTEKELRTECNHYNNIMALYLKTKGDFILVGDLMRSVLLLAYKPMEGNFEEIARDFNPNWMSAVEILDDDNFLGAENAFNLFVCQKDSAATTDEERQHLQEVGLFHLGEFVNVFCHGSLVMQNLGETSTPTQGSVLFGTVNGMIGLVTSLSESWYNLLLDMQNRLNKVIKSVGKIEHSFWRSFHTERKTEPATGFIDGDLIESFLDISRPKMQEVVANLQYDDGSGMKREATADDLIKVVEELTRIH
Experiment: Androgen Receptor Degradation Assay (Nano-Glo HiBiT)
Assay type: cell-based
Conditions: 18 h, HiBiT-tagged AR in human LnCaP cells; for Dmax: LNCaP, read-out: mean asymptote max
How it was run: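 LnCaP cells with CRISPR-knocked-in N-terminal HiBiT-tagged AR (10,000/well) treated 18 h at 37 °C with PROTACs over 11 threefold concentrations; lytic HiBiT luminescence normalised to DMSO (0%) and cell-free (100%) controls. Relative DC50 = 4-parameter fit inflection; absolute DC50 = 50% degradation interpolation; Dmax = maximum observed degradation.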

Structure (SMILES) | Dmax [%] | mean relative pDC50
CC1CC(CN2CCC(n3ncc4c(N5CCC(=O)NC5=O)cccc43)CC2)CCN1c1ccc(C(=O)N[C@H]2CC[C@H](Oc3ccc(C#N)c(Cl)c3)CC2)nn1 (stereo partly drawn) [EAR229] | ≥ 50 | –
N#Cc1ccc(O[C@H]2CC[C@H](NC(=O)c3ccc(N4C5CCC4CC(CN4CCC(n6ncc7c(N8CCC(=O)NC8=O)cccc76)CC4)C5)nn3)CC2)cc1Cl (stereo partly drawn) [EAR230, N-((1r,4r)-4-(3-chloro-4-cyanophenoxy)cyclohexyl)-6-(3-((4-(4-(2,4-dioxotetrahydropyrimidin-1(2H)-yl)-1H-indazol-1-yl)piperidin-1-yl)methyl)-8-azabicyclo[3.2.1]octan-8-yl)pyridazine-3-carboxamide] | ≥ 50 | –
N#Cc1ccc(O[C@H]2CC[C@H](NC(=O)c3ccc(N4CCC(OCCN5CCC(n6ncc7c(N8CCC(=O)NC8=O)cccc76)CC5)CC4)nn3)CC2)cc1Cl [EAR231, N-((1r,4r)-4-(3-chloro-4-cyanophenoxy)cyclohexyl)-6-(4-(2-(4-(4-(2,4-dioxotetrahydropyrimidin-1(2H)-yl)-1H-indazol-1-yl)piperidin-1-yl)ethoxy)piperidin-1-yl)pyridazine-3-carboxamide] | ≥ 50 | –
CC1CC(CN2CCC(n3ncc4c(N5CCC(=O)NC5=O)cccc43)CC2)CN1c1ccc(C(=O)N[C@H]2CC[C@H](Oc3ccc(C#N)c(Cl)c3)CC2)nn1 (stereo partly drawn) [EAR232, N-((1r,4r)-4-(3-chloro-4-cyanophenoxy)cyclohexyl)-6-(4-((4-(4-(2,4-dioxotetrahydropyrimidin-1(2H)-yl)-1H-indazol-1-yl)piperidin-1-yl)methyl)-2-methylpyrrolidin-1-yl)pyridazine-3-carboxamide] | ≥ 50 | –
N#Cc1ccc(O[C@H]2CC[C@H](NC(=O)c3ccc(N4CCC5(CC(CN6CCC(n7ncc8c(N9CCC(=O)NC9=O)cccc87)CC6)C5)C4)nn3)CC2)cc1Cl (stereo partly drawn) [EAR233, N-((1r,4r)-4-(3-chloro-4-cyanophenoxy)cyclohexyl)-6-(2-((4-(4-(2,4-dioxotetrahydropyrimidin-1(2H)-yl)-1H-indazol-1-yl)piperidin-1-yl)methyl)-6-azaspiro[3.4]octan-6-yl)pyridazine-3-carboxamide] | ≥ 50 | –
CC1CN(c2ccc(C(=O)N[C@H]3CC[C@H](Oc4ccc(C#N)c(Cl)c4)CC3)nn2)CCC1CN1CCC(n2ncc3c(N4CCC(=O)NC4=O)cccc32)CC1 (stereo partly drawn) [EAR234, N-((1r,4r)-4-(3-chloro-4-cyanophenoxy)cyclohexyl)-6-(4-((4-(4-(2,4-dioxotetrahydropyrimidin-1(2H)-yl)-1H-indazol-1-yl)piperidin-1-yl)methyl)-3-methylpiperidin-1-yl)pyridazine-3-carboxamide] | ≥ 50 | –
N#Cc1ccc(O[C@H]2CC[C@H](NC(=O)c3ccc(N4C[C@@H]5[C@H](CN6CCC(n7ncc8c(N9CCC(=O)NC9=O)cccc87)CC6)[C@@H]5C4)nn3)CC2)cc1Cl [EAR235, N-((1r,4R)-4-(3-chloro-4-cyanophenoxy)cyclohexyl)-6-((1R,5S,6R)-6-((4-(4-(2,4-dioxotetrahydropyrimidin-1(2H)-yl)-1H-indazol-1-yl)piperidin-1-yl)methyl)-3-azabicyclo[3.1.0]hexan-3-yl)pyridazine-3-carboxamide] | ≥ 50 | –
N#Cc1ccc(O[C@H]2CC[C@H](NC(=O)c3ccc(N4CC5(CCC5CN5CCC(n6ncc7c(N8CCC(=O)NC8=O)cccc76)CC5)C4)nn3)CC2)cc1Cl (stereo partly drawn) [EAR236, N-((1r,4r)-4-(3-chloro-4-cyanophenoxy)cyclohexyl)-6-(5-((4-(4-(2,4-dioxotetrahydropyrimidin-1(2H)-yl)-1H-indazol-1-yl)piperidin-1-yl)methyl)-2-azaspiro[3.3]heptan-2-yl)pyridazine-3-carboxamide] | ≥ 50 | –
N#Cc1ccc(O[C@H]2CC[C@H](NC(=O)c3ccc(N4CCC5(CC4)CC(CN4CCC(n6ncc7c(N8CCC(=O)NC8=O)cccc76)CC4)C5)nn3)CC2)cc1Cl [EAR237, N-((1r,4r)-4-(3-chloro-4-cyanophenoxy)cyclohexyl)-6-(2-((4-(4-(2,4-dioxotetrahydropyrimidin-1(2H)-yl)-1H-indazol-1-yl)piperidin-1-yl)methyl)-7-azaspiro[3.5]nonan-7-yl)pyridazine-3-carboxamide] | ≥ 50 | –
N#Cc1ccc(O[C@H]2CC[C@H](NC(=O)c3ccc(N4CC[C@H](CN5CCC(n6ncc7c(N8CCC(=O)NC8=O)cccc76)CC5)C4)nn3)CC2)cc1Cl [EAR238, N-((1r,4R)-4-(3-chloro-4-cyanophenoxy)cyclohexyl)-6-((R)-3-((4-(4-(2,4-dioxotetrahydropyrimidin-1(2H)-yl)-1H-indazol-1-yl)piperidin-1-yl)methyl)pyrrolidin-1-yl)pyridazine-3-carboxamide] | ≥ 50 | –
N#Cc1ccc(O[C@H]2CC[C@H](NC(=O)c3ccc(N4CC[C@@H](CN5CCC(n6ncc7c(N8CCC(=O)NC8=O)cccc76)CC5)C4)nn3)CC2)cc1Cl [EAR239, N-((1r,4R)-4-(3-chloro-4-cyanophenoxy)cyclohexyl)-6-((S)-3-((4-(4-(2,4-dioxotetrahydropyrimidin-1(2H)-yl)-1H-indazol-1-yl)piperidin-1-yl)methyl)pyrrolidin-1-yl)pyridazine-3-carboxamide] | ≥ 50 | –
CC1(CN2CCC(n3ncc4c(N5CCC(=O)NC5=O)cccc43)CC2)CN(c2ccc(C(=O)N[C@H]3CC[C@H](Oc4ccc(C#N)c(Cl)c4)CC3)nn2)C1 [EAR240, N-((1r,4r)-4-(3-chloro-4-cyanophenoxy)cyclohexyl)-6-(3-((4-(4-(2,4-dioxotetrahydropyrimidin-1(2H)-yl)-1H-indazol-1-yl)piperidin-1-yl)methyl)-3-methylazetidin-1-yl)pyridazine-3-carboxamide] | ≥ 50 | –
CC1(CN2CCC(n3ncc4c(N5CCC(=O)NC5=O)cccc43)CC2)CCN(c2ccc(C(=O)N[C@H]3CC[C@H](Oc4ccc(C#N)c(Cl)c4)CC3)nn2)C1 (stereo partly drawn) [EAR241, N-((1r,4r)-4-(3-chloro-4-cyanophenoxy)cyclohexyl)-6-(3-((4-(4-(2,4-dioxotetrahydropyrimidin-1(2H)-yl)-1H-indazol-1-yl)piperidin-1-yl)methyl)-3-methylpyrrolidin-1-yl)pyridazine-3-carboxamide] | ≥ 50 | –
CC1(CN2CCC(n3ncc4c(N5CCC(=O)NC5=O)cccc43)CC2)CCN(c2ccc(C(=O)N[C@H]3CC[C@H](Oc4ccc(C#N)c(Cl)c4)CC3)nn2)CC1 [EAR242, N-((1r,4r)-4-(3-chloro-4-cyanophenoxy)cyclohexyl)-6-(4-((4-(4-(2,4-dioxotetrahydropyrimidin-1(2H)-yl)-1H-indazol-1-yl)piperidin-1-yl)methyl)-4-methylpiperidin-1-yl)pyridazine-3-carboxamide] | ≥ 50 | –
N#Cc1ccc(O[C@H]2CC[C@H](NC(=O)c3ccc(N4CCOC(CCN5CCC(n6ncc7c(N8CCC(=O)NC8=O)cccc76)CC5)C4)nn3)CC2)cc1Cl (stereo partly drawn) [EAR243, N-((1r,4r)-4-(3-chloro-4-cyanophenoxy)cyclohexyl)-6-(2-(2-(4-(4-(2,4-dioxotetrahydropyrimidin-1(2H)-yl)-1H-indazol-1-yl)piperidin-1-yl)ethyl)morpholino)pyridazine-3-carboxamide] | ≥ 50 | –
N#Cc1ccc(O[C@H]2CC[C@H](NC(=O)c3ccc(N4C[C@]5(CN6CCC(n7ncc8c(N9CCC(=O)NC9=O)cccc87)CC6)C[C@]5(C(F)(F)F)C4)nn3)CC2)cc1Cl [EAR244, N-((1r,4R)-4-(3-chloro-4-cyanophenoxy)cyclohexyl)-6-((1R,5R)-1-((4-(4-(2,4-dioxotetrahydropyrimidin-1(2H)-yl)-1H-indazol-1-yl)piperidin-1-yl)methyl)-5-(trifluoromethyl)-3-azabicyclo[3.1.0]hexan-3-yl)pyridazine-3-carboxamide] | ≥ 50 | –
CC1(C)[C@H](NC(=O)c2ccc(N3CCC(CN4CCC(n5ncc6c(N7CCC(=O)NC7=O)nccc65)CC4)CC3)nc2)C(C)(C)[C@H]1Oc1cnc(C#N)c(Cl)c1 [EAR257, N-((1r,3r)-3-((5-Chloro-6-cyanopyridin-3-yl)oxy)-2,2,4,4-tetramethylcyclobutyl)-6-(4-((4-(4-(2,4-dioxotetrahydropyrimidin-1(2H)-yl)-1H-pyrazolo[4,3-c]pyridin-1-yl)piperidin-1-yl)methyl)piperidin-1-yl)nicotinamide] | ≥ 50 | –
CC1(C)[C@H](NC(=O)c2ccc(N3CCC(CN4CCC(n5ccc6c(N7CCC(=O)NC7=O)nccc65)CC4)CC3)nc2)C(C)(C)[C@H]1Oc1cnc(C#N)c(Cl)c1 [EAR259, N-((1r,3r)-3-((5-Chloro-6-cyanopyridin-3-yl)oxy)-2,2,4,4-tetramethylcyclobutyl)-6-(4-((4-(4-(2,4-dioxotetrahydropyrimidin-1(2H)-yl)-1H-pyrrolo[3,2-c]pyridin-1-yl)piperidin-1-yl)methyl)piperidin-1-yl)nicotinamide] | ≥ 50 | –
CC1(C)[C@H](NC(=O)c2ccc(N3CCC(CN4CCC(n5ncc6c(N7CCC(=O)NC7=O)ccnc65)CC4)CC3)cn2)C(C)(C)[C@H]1Oc1ccc(C#N)c2ncccc12 [EAR260, N-((1r,3r)-3-((8-Cyanoquinolin-5-yl)oxy)-2,2,4,4-tetramethylcyclobutyl)-5-(4-((4-(4-(2,4-dioxotetrahydropyrimidin-1(2H)-yl)-1H-pyrazolo[3,4-b]pyridin-1-yl)piperidin-1-yl)methyl)piperidin-1-yl)picolinamide hydrochloride] | ≥ 50 | –
CC1(C)[C@H](NC(=O)c2ncc(N3CCC(CN4CCC(n5ncc6c(N7CCC(=O)NC7=O)cccc65)CC4)CC3)cn2)C(C)(C)[C@H]1Oc1cnc(C#N)c(Cl)c1 [EAR268, N-((1r,3r)-3-((5-Chloro-6-cyanopyridin-3-yl)oxy)-2,2,4,4-tetramethylcyclobutyl)-5-(4-((4-(4-(2,4-dioxotetrahydropyrimidin-1(2H)-yl)-1H-indazol-1-yl)piperidin-1-yl)methyl)piperidin-1-yl)pyrimidine-2-carboxamide] | ≥ 50 | 5.54
